In patent US10738028B2, “Spiro three-membered ring, spiro five-membered ring peptide deformylase inhibitor and use thereof in antibacteria and anti-tumor” (priority 2016, dated 2020):
Read-outs that look alike come from different tables or passages of the source.

Tests used:
Format in all cases: cell-based
[1] = test system: BEL-7402 liver cancer cell line; assay: CCK-8 proliferation inhibition; conditions: concentration of 30 μM; for Inhibition of proliferation, Liver cancer BEL-7402: 72 hours, 30 µM
Outline: (§1)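 Plating at 2000 cells/well, then incubation overnight at 37° C. Next, a range of compound concentrations for 72 hours (control 1‰ DMSO). Finally, medium decanted and CCK-8 diluted 1:10 added.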

[2] = test system: A549 lung cancer cell line; assay: CCK-8 proliferation inhibition; conditions: concentration of 30 μM; for inhibition at 30 µM: Homo sapiens, A549, 72 h
Outline: as §1

[3] = test system: MGC-803 gastric cancer cell line; assay: CCK-8 proliferation inhibition; conditions: concentration of 30 μM; for inhibition at 30 µM: Homo sapiens, MGC-803, 72 h
Outline: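 Cells were seeded at 2000 cells/well and cultured overnight at 37° C, 5% CO2, then exposed for 72 hours to compounds diluted from DMSO stocks. Controls received 1‰ DMSO. CCK-8 (1:10 diluted) replaced the medium. MGC-803 and Jurkat were grown in 1640, PC3 in F12, and MCF-7 in DMEM high glucose, each with 10% newborn bovine serum.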

[4] = test system: HCT-116 colorectal cancer cell line; assay: CCK-8 proliferation inhibition; conditions: concentration of 30 μM, 72 hours, CCK-8; for inhibition at 30 µM: Homo sapiens, HCT-116, 72 h
Outline: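 HCT-116 cells, seeded at 2000 cells/well in McCoy's 5A with 10% newborn bovine serum, were cultured overnight at 37° C., 5% CO2, then exposed to compound dilutions in medium for 72 hours. Viability was read with 1:10 diluted CCK-8; controls received 1‰ DMSO.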

[5] = test system: Enterococcus faecalis (EFA); assay: MIC, two-fold agar dilution (CLSI), clinical isolates
Outline: (§2)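 Test samples were assayed by the CLSI-recommended two-fold agar dilution method, and the minimum inhibitory concentration against each tested strain was determined.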

[6] = test system: methicillin-sensitive Staphylococcus epidermidis (MSSE); assay: as above; conditions: for Anti-bacterial activity (MIC), strain MSSE 15-3: clinical isolate MSSE 15-3; for Anti-bacterial activity (MIC), strain MSSE 15-4: clinical isolate MSSE 15-4; for Anti-bacterial activity (MIC), strain MSSE 15-5: clinical isolate MSSE 15-5; for Anti-bacterial activity (MIC), strain MSSE 15-6: clinical isolate MSSE 15-6
Outline: as §2

[7] = test system: Enterococcus faecium (EFM); assay: as above
Outline: as §2

[8] = test system: methicillin-resistant Staphylococcus epidermidis (MRSE); assay: as above; conditions: for Anti-bacterial activity (MIC), strain MRSE 15-1: clinical isolate MRSE 15-1; for Anti-bacterial activity (MIC), strain MRSE 15-2: clinical isolate MRSE 15-2; for Anti-bacterial activity (MIC), strain MRSE 15-3: clinical isolate MRSE 15-3; for Anti-bacterial activity (MIC), strain MRSE 15-7: clinical isolate MRSE 15-7
Outline: as §2

[9] = test system: methicillin-resistant Staphylococcus aureus (MRSA); assay: as above; conditions: for Anti-bacterial activity (MIC), strain MRSA 15-1: clinical isolate MRSA 15-1; for Anti-bacterial activity (MIC), strain MRSA 15-2: clinical isolate MRSA 15-2; for Anti-bacterial activity (MIC), strain MRSA 15-3: clinical isolate MRSA 15-3; for Anti-bacterial activity (MIC), strain MRSA 15-4: clinical isolate MRSA 15-4
Outline: as §2

[10] = test system: Escherichia coli (including ESBLs, non-ESBLs); assay: as above; conditions: for Anti-bacterial activity (MIC), strain ECO+ 15-1: clinical isolate ECO+ 15-1; for Anti-bacterial activity (MIC), strain ECO+ 15-2: clinical isolate ECO+ 15-2; for Anti-bacterial activity (MIC), strain ECO+ 15-3: clinical isolate ECO+ 15-3; for Anti-bacterial activity (MIC), strain ECO+ 15-4: clinical isolate ECO+ 15-4; for Anti-bacterial activity (MIC), strain ECO− 15-1: clinical isolate ECO− 15-1; for Anti-bacterial activity (MIC), strain ECO− 15-2: clinical isolate ECO− 15-2; for Anti-bacterial activity (MIC), strain ECO− 15-3: clinical isolate ECO− 15-3; for Anti-bacterial activity (MIC), strain ECO− 15-4: clinical isolate ECO− 15-4
Outline: as §2

[11] = test system: methicillin-sensitive Staphylococcus aureus (MSSA); assay: as above; conditions: for Anti-bacterial activity (MIC), strain MSSA 15-3: clinical isolate MSSA 15-3; for Anti-bacterial activity (MIC), strain MSSA 15-4: clinical isolate MSSA 15-4; for Anti-bacterial activity (MIC), strain MSSA 15-5: clinical isolate MSSA 15-5; for Anti-bacterial activity (MIC), strain MSSA 15-6: clinical isolate MSSA 15-6
Outline: as §2

[12] = test system: Streptococcus pneoumoniae (SPN); assay: as above
Outline: as §2

[13] = test system: Moraxella catarrhalis (BCA); assay: as above
Outline: as §2

## O=C(C[C@@H](CC1CCCC1)C(=O)N1CC2(CC2)C[C@H]1C(=O)Nc1cccnn1)NO [Example 66]
[1]
  Inhibition of proliferation, Liver cancer BEL-7402: 74%
[2]
  inhibition at 30 µM: > 50%
[2]; 72 hours, 30 µM
  Inhibition of proliferation, Lung cancer A549: 56%
[3]
  inhibition at 30 µM: > 50%
[3]; 72 hours, 30 µM
  Inhibition of proliferation, Gastric cancer MGC-803: 60%
[4]; 30 µM
  HCT116 inhibition rate/%: 75%
[5]; strain EFA 15-1
  Anti-bacterial activity (MIC): 4 mg/L
[5]; strain EFA 15-2
  Anti-bacterial activity (MIC): 4 mg/L
[5]; strain EFA 15-3
  Anti-bacterial activity (MIC): 2 mg/L
[5]; strain EFA 15-4
  Anti-bacterial activity (MIC): 16 mg/L
[5]; strain EFA 15-5
  Anti-bacterial activity (MIC): 16 mg/L
[5]; strain EFA 15-6
  Anti-bacterial activity (MIC): 16 mg/L
[5]; strain EFA 15-9
  Anti-bacterial activity (MIC): 16 mg/L
[6]
  Anti-bacterial activity (MIC), strain MSSE 15-3: 0.06 mg/L
  Anti-bacterial activity (MIC), strain MSSE 15-4: 1 mg/L
  Anti-bacterial activity (MIC), strain MSSE 15-5: 1 mg/L
  Anti-bacterial activity (MIC), strain MSSE 15-6: 0.06 mg/L
[7]; strain EFM 15-1
  Anti-bacterial activity (MIC): 16 mg/L
[7]; strain EFM 15-2
  Anti-bacterial activity (MIC): 16 mg/L
[7]; strain EFM 15-3
  Anti-bacterial activity (MIC): 16 mg/L
[7]; strain EFM 15-4
  Anti-bacterial activity (MIC): 1 mg/L
[7]; strain EFM 15-5
  Anti-bacterial activity (MIC): 0.125 mg/L
[7]; strain EFM 15-6
  Anti-bacterial activity (MIC): 0.5 mg/L
[8]
  Anti-bacterial activity (MIC), strain MRSE 15-1: 0.25 mg/L
  Anti-bacterial activity (MIC), strain MRSE 15-2: 1 mg/L
  Anti-bacterial activity (MIC), strain MRSE 15-3: 1 mg/L
  Anti-bacterial activity (MIC), strain MRSE 15-7: 1 mg/L
[9]
  Anti-bacterial activity (MIC), strain MRSA 15-1: 0.5 mg/L
  Anti-bacterial activity (MIC), strain MRSA 15-2: 2 mg/L
  Anti-bacterial activity (MIC), strain MRSA 15-3: 0.5 mg/L
  Anti-bacterial activity (MIC), strain MRSA 15-4: 1 mg/L
[10]
  Anti-bacterial activity (MIC), strain ECO+ 15-1: 16 mg/L
  Anti-bacterial activity (MIC), strain ECO+ 15-2: 32 mg/L
  Anti-bacterial activity (MIC), strain ECO+ 15-3: 16 mg/L
  Anti-bacterial activity (MIC), strain ECO+ 15-4: 16 mg/L
  Anti-bacterial activity (MIC), strain ECO− 15-1: 16 mg/L
  Anti-bacterial activity (MIC), strain ECO− 15-2: 16 mg/L
  Anti-bacterial activity (MIC), strain ECO− 15-3: 32 mg/L
  Anti-bacterial activity (MIC), strain ECO− 15-4: 8 mg/L
[11]
  Anti-bacterial activity (MIC), strain MSSA 15-3: 1 mg/L
  Anti-bacterial activity (MIC), strain MSSA 15-4: 0.5 mg/L
  Anti-bacterial activity (MIC), strain MSSA 15-5: 0.5 mg/L
  Anti-bacterial activity (MIC), strain MSSA 15-6: 32 mg/L
[12]; strain SPN 16-2
  Anti-bacterial activity (MIC): 0.25 mg/L
[12]; strain SPN 16-4
  Anti-bacterial activity (MIC): 0.25 mg/L
[13]; strain BCA 14-1
  Anti-bacterial activity (MIC): 2 mg/L
[13]; strain BCA 14-4
  Anti-bacterial activity (MIC): 2 mg/L
[13]; strain BCA 14-5
  Anti-bacterial activity (MIC): 2 mg/L
[13]; strain BCA 14-6
  Anti-bacterial activity (MIC): 2 mg/L
[13]; strain BCA 14-7
  Anti-bacterial activity (MIC): 2 mg/L
[13]; strain BCA 14-8
  Anti-bacterial activity (MIC): 2 mg/L
[13]; strain BCA 14-10
  Anti-bacterial activity (MIC): 0.5 mg/L

## O=C(C[C@@H](CC1CCCC1)C(=O)N1CC2(CC2)C[C@H]1C(=O)Nc1ncccc1F)NO [Example 67]
[1]; Homo sapiens, Bel-7402, 72 h
  inhibition at 30 µM: > 50%
[1]
  Inhibition of proliferation, Liver cancer BEL-7402: 57%
[2]
  inhibition at 30 µM: 36%
[3]
  inhibition at 30 µM: 39%
[4]; Table 5, read-out: Inhibition of proliferation, Colorectal cancer HCT116
  inhibition at 30 µM: ≥ 30%
[4]; read-out: HCT116 inhibition rate/%
  inhibition at 30 µM: 44%
[5]; strain EFA 15-1
  Anti-bacterial activity (MIC): 32 mg/L
[5]; strain EFA 15-2
  Anti-bacterial activity (MIC): 32 mg/L
[5]; strain EFA 15-3
  Anti-bacterial activity (MIC): 32 mg/L
[5]; strain EFA 15-4
  Anti-bacterial activity (MIC): 32 mg/L
[5]; strain EFA 15-5
  Anti-bacterial activity (MIC): 32 mg/L
[5]; strain EFA 15-6
  Anti-bacterial activity (MIC): 32 mg/L
[5]; strain EFA 15-9
  Anti-bacterial activity (MIC): 8 mg/L
[6]
  Anti-bacterial activity (MIC), strain MSSE 15-3: 0.25 mg/L
  Anti-bacterial activity (MIC), strain MSSE 15-4: 0.5 mg/L
  Anti-bacterial activity (MIC), strain MSSE 15-5: 0.5 mg/L
  Anti-bacterial activity (MIC), strain MSSE 15-6: 0.125 mg/L
[7]; strain EFM 15-1
  Anti-bacterial activity (MIC): 32 mg/L
[7]; strain EFM 15-2
  Anti-bacterial activity (MIC): > 32 mg/L
[7]; strain EFM 15-3
  Anti-bacterial activity (MIC): > 32 mg/L
[7]; strain EFM 15-4
  Anti-bacterial activity (MIC): 2 mg/L
[7]; strain EFM 15-5
  Anti-bacterial activity (MIC): 0.25 mg/L
[7]; strain EFM 15-6
  Anti-bacterial activity (MIC): 0.25 mg/L
[8]
  Anti-bacterial activity (MIC), strain MRSE 15-1: 0.5 mg/L
  Anti-bacterial activity (MIC), strain MRSE 15-2: 0.5 mg/L
  Anti-bacterial activity (MIC), strain MRSE 15-3: 0.5 mg/L
  Anti-bacterial activity (MIC), strain MRSE 15-7: 0.5 mg/L
[9]
  Anti-bacterial activity (MIC), strain MRSA 15-1: 0.25 mg/L
  Anti-bacterial activity (MIC), strain MRSA 15-2: 0.5 mg/L
  Anti-bacterial activity (MIC), strain MRSA 15-3: 0.25 mg/L
  Anti-bacterial activity (MIC), strain MRSA 15-4: 0.5 mg/L
[10]
  Anti-bacterial activity (MIC), strain ECO+ 15-1: 16 mg/L
  Anti-bacterial activity (MIC), strain ECO+ 15-2: 16 mg/L
  Anti-bacterial activity (MIC), strain ECO+ 15-3: 32 mg/L
  Anti-bacterial activity (MIC), strain ECO+ 15-4: 32 mg/L
  Anti-bacterial activity (MIC), strain ECO− 15-1: 32 mg/L
  Anti-bacterial activity (MIC), strain ECO− 15-2: 32 mg/L
  Anti-bacterial activity (MIC), strain ECO− 15-3: 32 mg/L
  Anti-bacterial activity (MIC), strain ECO− 15-4: 32 mg/L
[11]
  Anti-bacterial activity (MIC), strain MSSA 15-3: 0.5 mg/L
  Anti-bacterial activity (MIC), strain MSSA 15-4: 0.125 mg/L
  Anti-bacterial activity (MIC), strain MSSA 15-5: 0.125 mg/L
  Anti-bacterial activity (MIC), strain MSSA 15-6: 32 mg/L
[12]; strain SPN 16-2
  Anti-bacterial activity (MIC): 0.25 mg/L
[12]; strain SPN 16-4
  Anti-bacterial activity (MIC): 0.25 mg/L
[13]; strain BCA 14-1
  Anti-bacterial activity (MIC): 2 mg/L
[13]; strain BCA 14-4
  Anti-bacterial activity (MIC): 2 mg/L
[13]; strain BCA 14-5
  Anti-bacterial activity (MIC): 2 mg/L
[13]; strain BCA 14-6
  Anti-bacterial activity (MIC): 2 mg/L
[13]; strain BCA 14-7
  Anti-bacterial activity (MIC): 2 mg/L
[13]; strain BCA 14-8
  Anti-bacterial activity (MIC): 2 mg/L
[13]; strain BCA 14-10
  Anti-bacterial activity (MIC): 0.5 mg/L
